Laboratory results as given in US5399340A, “Use of amide complex compounds” (Schering Aktiengesellschaft, priority 1989, dated 1995).

Experiments:
T1 relaxation in water = assay type: physicochemical
T1 relaxation in plasma = assay type: physicochemical
[1] = cited from earlier work

| Compound | T1 relaxation (T1 relaxation in water) [mmol⁻¹ s⁻¹] | T1 relaxation (T1 relaxation in plasma) [mmol⁻¹ s⁻¹] | distribution ([1]; intravenous injection) | passage of intact cell membranes and extrarenal excretion ([1]; intravenous injection) | route of excretion ([1]; intravenous injection) | rate of excretion in renal insufficiency ([1]; patients with limited kidney function) |
| --- | --- | --- | --- | --- | --- | --- |
| C[NH2+]C[C@H](O)[C@@H](O)[C@H](O)[C@H](O)CO.O=C([O-])CN(CCN(CC(=O)[O-])CC(=O)[O-])CCN(CC(=O)[O-])CC(=O)Nc1ccccc1.[Gd+3] [Example 2, N-Methylglucamine Salt of the Gadolinium Complex of 3,6,9-Tris(carboxymethyl)-3,6,9-triazaundecanedioic Acid Phenyl Monoamide] | 3.79 ± 0.16 | 5.45 ± 0.68 |  |  |  |  |
| CNC[C@H](O)[C@@H](O)[C@H](O)[C@H](O)CO.CNC[C@H](O)[C@@H](O)[C@H](O)[C@H](O)CO.O=C([O-])CN(CCN(CC(=O)[O-])CC(=O)O)CCN(CC(=O)[O-])CC(=O)O.[Gd+3] [MAGNEVIST] |  |  | extra-cellular | practically not at all observed | excreted via the kidneys by glomerular secretion | excreted only very slowly |
